Results as given in paper PMC6259833, “Antioxidant Bibenzyl Derivatives from Notholaena nivea Desv” (Molecules, 2011).
“Also recorded” adds a separate entry of the source.

Key:
[1] = Coupled oxidation of β-carotene and linoleic acid (linoleic acid autoxidation assay); details: 15 µg/mL; for Linoleic acid autoxidation inhibition (AA), 1 h: t = 60 min; for Linoleic acid autoxidation inhibition (AA), 1 h / Linoleic acid autoxidation inhibition (AA), 2 h: β-carotene bleaching, 50 °C; for Linoleic acid autoxidation inhibition (AA), 2 h: t = 120 min; for antioxidant activity in β-carotene/linoleic acid model (in words): compared with BHT standard
Method: Heat-induced oxidation of an aqueous emulsion system of β-carotene and linoleic acid was measured by the method described by Pratt (1992). A quantity of linoleic acid (20 mg) and Tween 20 (200 mg) were placed in a flask, and a solution of β-carotene (2 mg) in CHCl3 (10 mL) was added. After removal of CHCl3, oxygenated distilled water (50 mL) was added. Aliquots of each compound (200 µL), dissolved in ethanol to a 15 µg/mL solution, were added to each flask with shaking. Samples without test compounds were used as blanks and sample with 2,6 di-tert-butyl-4-methylphenol (BHT) was used as a control substance. Samples were subjected to the oxidation, by placing them in an oven at 50 °C for 3 hours. The absorbance was red at 470 nm at regular intervals to monitor the rate of bleaching of ß-carotene. The antioxidant activities was expressed as AA, calculated with the equation Inhibitory ratio (AA) = 100 [1−A0−At]/ A00−A0t; where A0 was the absorbance at the beginning of the incubation, with compound; At was the absorbance at the time t, with compound; A00 was the absorbance at beginning of the incubation, without compound; A0t the absorbance at the time t, without compound. Each experiment was performed in triplicate.

[2] = TEAC free radical scavenging assay (ABTS radical cation); details: for TEAC: Trolox concentration with inhibition equivalent to a 1 mM solution of the compound, ABTS+., 734 nm, mean ± SD, triplicate
Method: The TEAC value is based on the ability of the antioxidant to scavenge the ABTS^+.. ABTS^+. cation radical was produced by the reaction between ABTS (7 mM) in water and potassium persulfate (2.45 mM), kept in the dark at room temperature for 12 hours. ABTS^+. is a blue-green cromogen with a characteristic absorption at 734 nm. The ABTS^+. solution was diluted with PBS, pH 7.4, to an absorbance of 0.70 at 734 nm and equilibrated at 30 °C.
Samples were diluted with methanol to have 0.3 mM, 0.5 mM, 1 mM, 1.5 mM, 2 mM solutions. The reaction was enhanced by the addition of diluted ABTS (1 mL) to 10 µL of each solution of sample or Trolox (standard), or […] of methanol (blank). The determination was repeated three times for each sample solution. The percentage inhibition of absorbance at 734 nm was calculated for each concentration in function of the blank’s absorbance. The percentage inhibition was plotted as a function of compound or standard concentration. The antioxidant activities of compounds 1-6 are expressed as TEAC, Trolox equivalent antioxidant activity. TEAC value is defined as the concentration of standard Trolox solution with equivalent percentage inhibition to a 1 mM concentration solution of the compound after investigation.

[3] = Superoxide anion enzymatic generation assay (xanthine/xanthine oxidase, NBT reduction); type: biochemical; details: xanthine/XOD system, 560 nm, mean ± SD, read-out: Superoxide anion scavenging activity IC50
Method: Superoxide anion was generated in an enzymatic system by preparing a mixture of xanthine and xanthine oxidase. The reaction mixture included 0.1 mM EDTA, 50 µg/mL bovine serum albumine (BSA), 25 µM nitroblue tetrazolium, 0.1 mM xanthine and 3.3 × 10^−3 units xanthine oxidase (XOD) in 40 mM sodium carbonate buffer (pH 10.2) in a final volume of 3 mL. After incubation at 25 °C with increasing concentrations of samples, the absorbance of formazan produced was determined at 560 nm.
The inhibitory effect of samples on the generation of superoxide anion were estimated by the equation: Inhibitory ratio = (A0−A1) × 100/ A0; where A0 absorbance with no addition of sample and A1 absorbance with addition of sample. Inhibitory ratio for each sample was plotted as a function of the concentration, then was calculated the IC50 value, with the statistical method of linear regression.

xanthine oxidase (XOD) = molecular target: T1, xanthine oxidase (XOD) (Bos taurus, UniProt P80457); assay: Xanthine oxidase inhibition assay (uric acid formation); type: biochemical; details: for IC50: uric acid from xanthine, 295 nm, mean ± SD
T1 construct: purchased Sigma Aldrich (Gillingam, Dorset, U.K.)
Method: Xanthine oxidase inhibition activity was evaluated by the spectrophotometric measurement of the formation of uric acid by xanthine. A 100 µM solution of xanthine in 0.1 M phosphate buffer pH 7.8 with 0.04 units/mL of xanthine oxidase was incubated for 10 min at room temperature and read at 295 nm against a blank sample. Various concentrations of testing compounds were added to samples before the enzyme has been instilled and their effect on the generation of uric acid was used to calculate regression lines and IC50 values.

Caco-2 cells = assay: H2O2-induced cytotoxicity in differentiated Caco-2 cells, neutral red assay; type: cell-based, human; details: for viability at 250 µM: compound 250 μmol/L; for protection against H2O2-induced toxicity (in words): compound 250 µmol/L, pretreatment before 10 mmol/L H2O2
Method: The Caco-2 cells strain was obtained from Prof. A. Leone research group (Dipartimento di Scienze Farmaceutiche, Sezione Biologica, Università degli Studi di Salerno, Fisciano, Italy) and used between passages 75 to 90. The cells were routinely maintained in DMEM, containing 200 mL/L FCS, 10 mL/L of 100× nonessential aminoacids, 2 mmol/L L-glutamine, 5 × 10^4 IU/L penicillin, 50 mg/L streptomycin at 37 °C in a 5% CO2 atmosphere at 90-100% relative humidity. Cell were grown in 10-cm petri dishes. For experiments, cells were seeded at a density of 90,000 cells/cm^2 in a Transwell insert, and the medium (0.1 mL in the insert and 0.8 mL in the well) was changed every 48 h. Fourteen to sixteen days after confluence, the integrity of the monolayer of differentiated cells was monitored according to the method of Hildago et al..
An iron-free medium (EMEM) was used for the oxidative stress induction experiments. The oxidative stress was induced in the apical compartment of the transwell insert by addition of H2O2. After 20 h of incubation, several oxidative stress markers were measured. To assay the capacity of these compounds to protect Caco-2 cells from ROM-mediated oxidative injury, cells were preincubated for 4 h with compounds, which had been added to the apical side of monolayer. After the end of preincubation time, the medium was changed before the addition of the of the oxidative stress-inducing agents.
We assessed the cytotoxicity of ROM on Caco-2 by the viability test of neutral red uptake, performed according to the procedure of Fautz et al.. After oxidative stress induction the medium in the insert was removed and replaced with 0.1 mL of fresh medium containing […] neutral red. At the end of 3 h of incubation, the medium was removed and cells were washed twice with PBS; finally the incorporated neutral red was released from cells by incubation for 15 min at room temperature in the presence of 1 mL of cell lysis buffer containing acetic acid (1%, v/v) and ethanol (50% v/v). To measure the dye taken up, the cell lysis products were centrifuged and supernatants spectrophotometrically measured at 540 nm.

[4] = Homo sapiens, Caco-2, 4 h preincubation, then 10 mmol/L H2O2 for 20 h, neutral red, read-out: cell viability

T1 sequence (P80457 2-1332 limits assumed): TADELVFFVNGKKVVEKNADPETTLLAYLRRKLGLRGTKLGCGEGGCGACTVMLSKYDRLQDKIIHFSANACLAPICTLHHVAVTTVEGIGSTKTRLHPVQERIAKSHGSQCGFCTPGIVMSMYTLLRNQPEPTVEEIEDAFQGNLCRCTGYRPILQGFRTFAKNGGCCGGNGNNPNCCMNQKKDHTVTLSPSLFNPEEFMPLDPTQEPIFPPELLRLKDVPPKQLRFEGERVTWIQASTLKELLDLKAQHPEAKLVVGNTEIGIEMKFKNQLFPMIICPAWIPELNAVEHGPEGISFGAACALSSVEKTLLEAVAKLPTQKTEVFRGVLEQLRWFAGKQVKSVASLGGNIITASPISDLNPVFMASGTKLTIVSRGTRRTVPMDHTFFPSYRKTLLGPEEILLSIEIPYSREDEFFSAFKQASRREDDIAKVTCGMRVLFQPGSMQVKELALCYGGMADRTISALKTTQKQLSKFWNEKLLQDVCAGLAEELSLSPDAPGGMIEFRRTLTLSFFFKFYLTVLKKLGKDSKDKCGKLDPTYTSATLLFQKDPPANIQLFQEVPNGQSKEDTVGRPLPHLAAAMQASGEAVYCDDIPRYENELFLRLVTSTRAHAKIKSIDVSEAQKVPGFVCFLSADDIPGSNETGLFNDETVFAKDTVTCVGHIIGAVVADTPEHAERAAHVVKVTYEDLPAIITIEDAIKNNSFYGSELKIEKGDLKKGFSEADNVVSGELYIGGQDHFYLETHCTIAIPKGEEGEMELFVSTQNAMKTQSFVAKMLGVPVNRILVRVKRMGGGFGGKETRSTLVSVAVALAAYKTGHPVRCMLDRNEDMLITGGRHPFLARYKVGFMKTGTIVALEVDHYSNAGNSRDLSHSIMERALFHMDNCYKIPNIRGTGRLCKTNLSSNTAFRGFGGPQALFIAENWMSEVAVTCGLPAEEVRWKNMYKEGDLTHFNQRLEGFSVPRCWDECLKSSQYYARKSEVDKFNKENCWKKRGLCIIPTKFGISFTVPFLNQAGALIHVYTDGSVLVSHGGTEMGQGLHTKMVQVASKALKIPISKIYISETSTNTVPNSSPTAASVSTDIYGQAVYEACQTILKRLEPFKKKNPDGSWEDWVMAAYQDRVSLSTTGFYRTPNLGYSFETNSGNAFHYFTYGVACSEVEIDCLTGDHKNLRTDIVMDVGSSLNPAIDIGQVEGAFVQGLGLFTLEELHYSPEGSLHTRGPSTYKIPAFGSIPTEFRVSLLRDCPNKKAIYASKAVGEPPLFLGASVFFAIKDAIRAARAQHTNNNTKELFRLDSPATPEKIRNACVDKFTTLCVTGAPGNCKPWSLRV

## Cc1cc(C(C)(C)C)c(O)c(C(C)(C)C)c1 [BHT, 2,6 di-tert-butyl-4-methylphenol, reference compound]
[1]
  Linoleic acid autoxidation inhibition (AA), 1 h: 60.00%
  Linoleic acid autoxidation inhibition (AA), 2 h: 51.07%

## COc1cc(O)c(C(=O)O)c(CCc2ccc(O)cc2)c1 [Compound 1, 5,12-dihydroxy-3-methoxy-dibenzyl-6-carboxylic acid]
[2]
  radical scavenging activity in ABTS/TEAC test (in words): most active
  TEAC: 1.98 ± 0.05 mM
[1]
  antioxidant activity in β-carotene/linoleic acid model (in words): highest activity after 1h; also recorded: moderate activity
  Linoleic acid autoxidation inhibition (AA), 1 h: 32.60%
  Linoleic acid autoxidation inhibition (AA), 2 h: 11.70%
[3]
  IC50: 96.93 ± 0.42 µM
Xanthine oxidase (XOD)
  activity as direct inhibitor of xanthine oxidase (in words): no activity
  IC50: > 100 µM
Caco-2 cells; [4]
  viability at 250 µM: 80%
Caco-2 cells; Homo sapiens, Caco-2, compound 500 μmol/L, 4 h preincubation, then 10 mmol/L H2O2 for 20 h, neutral red, read-out: cell viability
  viability at 500 µM: 88%
Caco-2 cells
  protection against H2O2-induced toxicity (in words): inactive
Caco-2 cells; compound 500 µmol/L preincubation
  protection against H2O2-induced alterations (in words): prevented

## COc1cc(CCc2ccc(O)cc2)c(C(=O)O)c(OC(C)=O)c1 [Compound 2, 5-acetyloxy-12-hydroxy-3-methoxybibenzyl-6-carboxylic acid]
[2]
  TEAC: 1.38 ± 0.01 mM
[1]
  antioxidant activity in β-carotene/linoleic acid model (in words): moderate activity
  Linoleic acid autoxidation inhibition (AA), 1 h: 28.51%
  Linoleic acid autoxidation inhibition (AA), 2 h: 19.16%
[3]
  IC50: 81.11 ± 0.68 µM
Xanthine oxidase (XOD)
  activity as direct inhibitor of xanthine oxidase (in words): moderate activity
  IC50: 71.39 ± 0.45 µM

## COc1cc(CCc2ccc(O)cc2)cc(Oc2ccc(CCc3cc(OC)cc(O)c3C(=O)O)cc2)c1 [Compound 3, 12-O-[3’-(5’-methoxy-12’-hydroxy)-bibenzyl]-5-hydroxy-3-methoxybibenzyl-6-carboxylic acid]
[2]
  TEAC: 1.22 ± 0.02 mM
[1]
  antioxidant activity in β-carotene/linoleic acid model (in words): no activity
  Linoleic acid autoxidation inhibition (AA), 1 h: 0%
  Linoleic acid autoxidation inhibition (AA), 2 h: 0%
[3]
  IC50: 78.2 ± 1.15 µM
Xanthine oxidase (XOD)
  activity as direct inhibitor of xanthine oxidase (in words): no activity
  IC50: > 100 µM

## COc1cc(CCc2ccc(Oc3cc(CCc4ccc(Oc5cc(CCc6ccc(O)cc6)c(C(=O)O)c(OC)c5)cc4)c(C(=O)O)c(OC)c3)cc2)c(C(=O)O)c(OC)c1 [Compound 4, 3-O-{12’-[12’’-O-(3’’,5’’-dimethoxy-6’’-carboxybibenzyl)]-5’-methoxy-6’-carboxybibenzyl}-12-hydroxy-5-methoxybibenzyl-6-carboxylic acid]
[2]
  TEAC: 1.5 ± 0.03 mM
[1]
  antioxidant activity in β-carotene/linoleic acid model (in words): no activity
  Linoleic acid autoxidation inhibition (AA), 1 h: 0%
  Linoleic acid autoxidation inhibition (AA), 2 h: 0%
[3]
  IC50: 81.3 ± 2.01 µM
Xanthine oxidase (XOD)
  activity as direct inhibitor of xanthine oxidase (in words): no activity
  IC50: > 100 µM

## COc1ccc(CCc2cc(OC)cc(O)c2C(=O)O)cc1 [Compound 5, 5-hydroxy-3,12-dimethoxy-6-carboxybibenzyl]
[2]
  TEAC: 1.21 ± 0.01 mM
[1]
  antioxidant activity in β-carotene/linoleic acid model (in words): moderate activity
  Linoleic acid autoxidation inhibition (AA), 1 h: 26.56%
  Linoleic acid autoxidation inhibition (AA), 2 h: 19.72%
[3]
  IC50: 58.4 ± 1.18 µM
Xanthine oxidase (XOD)
  activity as direct inhibitor of xanthine oxidase (in words): moderate activity
  IC50: 64 ± 2.13 µM

## COc1cc(O)cc(CCc2ccc(O)cc2)c1 [Compound 6, 3,12-dihydroxy-5-methoxybibenzyl]
[2]
  radical scavenging activity in ABTS/TEAC test (in words): most active compound
  TEAC: 2.55 ± 0.02 mM
[1]
  antioxidant activity in β-carotene/linoleic acid model (in words): moderate activity
  Linoleic acid autoxidation inhibition (AA), 1 h: 29.35%
  Linoleic acid autoxidation inhibition (AA), 2 h: 7.31%
[3]
  IC50: 83.3 ± 1.06 µM
Xanthine oxidase (XOD)
  activity as direct inhibitor of xanthine oxidase (in words): no activity
  IC50: > 100 µM
Caco-2 cells; Homo sapiens, Caco-2, compound 125 μmol/L, 4 h preincubation, then 10 mmol/L H2O2 for 20 h, neutral red, read-out: cell viability
  viability at 125 µM: 90%
Caco-2 cells; [4]
  viability at 250 µM: 98%
Caco-2 cells
  protection against H2O2-induced toxicity (in words): no decrease in cell viability; also recorded: prevent H2O2-induced cytotoxicity; also recorded: prevented

## OO [Compound H2O2, hydrogen peroxide, reference compound]
Caco-2 cells; 20 h of treatment with 10 mmol/L H2O2
  loss of cell viability: about 25%
Caco-2 cells; H2O2 10 mmol/L alone, 20 h, neutral red
  cell viability: 75%

## Oc1ccc(CCc2cc(O)cc(O)c2)cc1 [Dihydroresveratrol, reference compound]
[2]
  TEAC: 2.3 ± 0.07 mM
[1]
  antioxidant activity in β-carotene/linoleic acid model (in words): lower activity
  Linoleic acid autoxidation inhibition (AA), 1 h: 16.11%
  Linoleic acid autoxidation inhibition (AA), 2 h: 20.12%
[3]
  IC50: 60.9 ± 1.12 µM
Xanthine oxidase (XOD)
  IC50: > 100 µM

## O=c1c(O)c(-c2ccc(O)c(O)c2)oc2cc(O)cc(O)c12 [Quercetin, quercetin, reference compound]
[2]
  TEAC: 2.91 ± 0.02 mM
